Values quoted from earlier work, collected in patent publication US20060257475A1, “Stable Sertraline Hydrochloride Formulation and Method” (Boehringer Ingelheim International GmbH, priority 2006, published 2006).

Columns and labels:
[1] = reported in U.S. Pat. No. 5,248,699
[2] = reported in U.S. Pat. No. 5,734,083

Stability among Forms I to V [1]: greatest stability of these five forms
Solubility [2]: extremely insoluble
Structure (SMILES): CN[C@H]1CC[C@@H](c2ccc(Cl)c(Cl)c2)c2ccccc21 [Form I, (1S-cis)-4-(3,4-Dichlorophenyl)-1,2,3,4-tetrahydro-N-methyl-1-napththalenamine]
Thermodynamic stability relative to other crystalline forms ([1]; room temperature): more thermodynamically stable than Forms II, III, IV, and V
